# Measured values published in US7449190B2 (priority 2002, dated 2008).
# Legend:
# [1] = tested on: interaction of NP with VP35; type: biochemical, Ebola virus
# NP = type: cell-based, Ebola virus
# HIV gp160 = type: cell-based
molecule,measurement,setting,value
"CCCCCCCCO[C@H]1O[C@H](COC(C)=O)[C@@H](OC(C)=O)[C@H](OC(C)=O)[C@@H]1OC(C)=O [AcManα1-OC8, acetylated Manα1-O-octyl]",inhibition of the interaction of NP with VP35,[1],not seen
C[C@H]1CCC/C=C/[C@@H]2C[C@H](O)C[C@H]2[C@H](O)/C=C/C(=O)O1 [Brefeldin A],effect in the in vitro transcription/translation system (NP synthesis or association of NP with VP35 and VP24),[1],without any effect
"CCCCCCCCO[C@H]1O[C@H](CO)[C@@H](O)[C@H](O)[C@@H]1O [Manα1-OC8, mannose α1-O-octyl]",dose dependence of inhibition of NP/VP35 interaction,[1],dose-dependent
same,inhibition of NP/VP35 interaction when added after translation,[1],did not inhibit
same,inhibition of the interaction of NP with VP35,[1],substantially reduced
CC(=O)N[C@H]1[C@@H](OCc2ccccc2)O[C@H](CO)[C@H](O)[C@@H]1O[C@@H]1O[C@H](CO)[C@H](O)[C@H](O)[C@H]1O [benzyl 2-acetamido-2-deoxy-3-O-b-D-galactopyranosyl-a-D-galactopyranoside],effect in the in vitro transcription/translation system (NP synthesis or association of NP with VP35 and VP24),[1],without any effect
CC(=O)N[C@H]1[C@@H](OCc2ccccc2)O[C@H](CO)[C@H](O)[C@@H]1O [benzyl 2-acetamido-2-deoxy-a-D-galactopyranoside],effect in the in vitro transcription/translation system (NP synthesis or association of NP with VP35 and VP24),[1],without any effect
CC(=O)N[C@H]1[C@H](OCc2ccccc2)O[C@H](CO)[C@@H](O)[C@@H]1O [benzyl 2-acetamido-2-deoxy-b-D-glucopyranoside],effect in the in vitro transcription/translation system (NP synthesis or association of NP with VP35 and VP24),[1],without any effect
O=C(N[C@H]1[C@@H](OCc2ccccc2)O[C@H](CO)[C@@H](O)[C@@H]1O)OCc1ccccc1 [benzyl Z-a-D-glucosaminide],effect in the in vitro transcription/translation system (NP synthesis or association of NP with VP35 and VP24),[1],without any effect
O=C(N[C@H]1[C@H](OCc2ccccc2)O[C@H](CO)[C@@H](O)[C@@H]1O)OCc1ccccc1 [benzyl Z-b-D-glucosaminide],effect in the in vitro transcription/translation system (NP synthesis or association of NP with VP35 and VP24),[1],without any effect
OC[C@H]1NC[C@@H](O)[C@@H](O)[C@@H]1O [deoxymannojirimycin],effect on NP migration (glycosylation) in NP-transfected 293 cells,NP,No effect
CC(=O)N[C@H]1[C@@H](Oc2ccccc2)O[C@H](CO)[C@H](O)[C@@H]1O [phenyl N-acetyl-a-D-galactosaminide],effect in the in vitro transcription/translation system (NP synthesis or association of NP with VP35 and VP24),[1],without any effect
tunicamycin,expression of HIV gp160,HIV gp160,abolished
same,effect on NP migration (glycosylation) in NP-transfected 293 cells,NP,No effect
same,synthesis of NP in NP-transfected 293 cells,NP,unaffected
